From patent US20050048132A1, “Use of hydrochloric acid in the preparation of a medicament for the treatment of tumour” (priority 2001, published 2005)
Where two headings read alike, the source gives them in different places.

Key:
[1] = tested on: recurrent carcinoma of breast; settings: 1.0 ml of 18 wt % HCl, treated three times; tumor 2.0 cm×1.5 cm
[2] = tested on: abdominal hypodermal tissue of mice
Description: Thirty mice were used in the experiment. 0.05 ml of 3.8 wt % HCl was injected into the abdominal hypodermal tissue of each of them. […] Injection of 0.05 ml of normal saline was given to each of the remaining 6 mice which served as the control group. Normal saline was injected into the corresponding site where HCl had been injected to the other experimental mice.

[3] = tested on: liver of hogs in vivo; settings: 1.0 ml each into hog liver; 1 week after injection
Description: Experiment in vivo: Nine hogs (females and males) with average body weight of 70 kg were fed in an enclosed area. The hogs were divided into 3 groups, 3 hogs in each group. The hair on the location of liver was shaved and the skin was sterilized. […] The animals were dissected 1 week after the injection.

[4] = tested on: hogs
Description: Twenty-seven hogs, raised in an enclosed area, were divided into 9 groups—3 hogs in each group. 18 wt % HCl was injected into the livers of the hogs at a rate of 0.1 ml/ min, 0.5 ml/min, 1 ml/min respectively, and the doses were 0.5 ml, 1 ml, 3 ml separately. One week after the injection, the animals were dissected.

[5] = tested on: lungs of hogs
Text: The lung of the animal was dissected 1 week after the injection.

[6] = tested on: kidney cancer; settings: 1.5 ml of 18 wt % HCl, 3 months after treatment
Description: Treatment of kidney cancer: guided by CT, the puncture needle hit the center of the tumor, 1.5 ml of 18 wt % HCl was injected into the tumor slowly.

[7] = tested on: skin of guinea pig; settings: 0.2 ml of 3.6 wt % HCl hypodermal
Description: Six guinea pigs, female and males, 500 g each in body weight, were fed in the routine way. The guinea pig was anesthetized by ether. 0.2 ml of 3.6 wt % HCl was injected into the hypodermal tissue of the guinea pig.

[8] = tested on: cancer cells; assay: Cultivation of cancer cells in vitro together with gastric juice; assay type: cell-based
[9] = tested on: pig liver in vitro
Description: Thirty pig livers purchased from the market were divided into 10 groups, 3 in each group. […] One milliliter (1 ml) of hydrochloric acid solutions, (the concentrations being 1.8 wt %, 3.6 wt %, 7.2 wt %, 10.8 wt %, 14.4 wt %, 18 wt %, 25.2 wt %), and 1 ml , 0.5 ml, 0.1 ml respectively, of analytical pure hydrochloric acid were injected slowly to the […] of different groups, at a speed of 0.3 ml/min. The gross specimens were observed and the average value of the diameters of coagulated areas was determined.

[10] = tested on: cancerous pain due to advanced cancers; settings: 3.6 wt % HCl to block and damage the nerves
[11] = tested on: S-180 sarcomas; settings: forty-eight hours after injection; for Diameters of coagulating necrotic area / Gross shapes: 0.05 ml each into tumor 1 cm in size
Description: S-180 sarcomas were implanted into the hypodermal tissues of mice of Kun Ming species. When the tumor grew into 1 cm in size, a puncture needle was punctured into the center of the tumor and then connected with an automatic micro-injecting pump.

[12] = tested on: metastatic tumor of the left lobe of the brain from pulmonary adenocarcinoma; settings: 1.0 ml of 18 wt % HCl, two times; tumor 1.9 cm×1.9 cm before; 3 months after treatment
[13] = tested on: pig livers in vitro; settings: 0.5 ml each; after 24 hours
Description: Twelve pig livers purchased from the market were divided into 4 groups, 3 in each group. A puncture needle was punctured to the center of the liver tissue and then connected with an automatic microinjecting pump.

[14] = tested on: primary liver cancer
[15] = tested on: metastatic tumor of the adrenal gland from pulmonary carcinoma; settings: 1.0 ml of 18 wt % HCl, treated three times
[16] = tested on: pig liver in vivo; settings: for diameters of coagulated areas / pathological changes: 1 ml of 3.6% hydrochloric acid
Description: Ten hogs (females and males), with body weights of 70 kg on average, were fed in an enclosed area. The hair on the location of the liver of each hog was shaved and the skin sterilized guided by B-type ultrasonography. The puncture needle was punctured through the skin to the liver and then the needle was connected with an automatic micro-injecting pump. […] The animal was dissected at 1 week, 4 weeks, 12 weeks and 24 weeks after injection, and the shapes of the coagulating necrotic areas were observed and the diameters of the areas were measured. […] Then the liver tissue including normal tissue and coagulating necrotic tissue was fixed with formalin. Paraffin sections were prepared and the histopathological changes were observed under a microscope. […] Under a microscope, the structure of coagulating necrotic liver tissue was divided into two layers: the necrotic area in the center, and the surrounding reacting area.

[17] = tested on: W256 sarcoma
Description: Rats, female and males, 500 g each in body weight, were fed routinely. Hypodermic implantation of W256 sarcoma was carried out. Sarcoma, 5 cm in diameter, was chosen. One (1.0) ml of 18 wt % HCl was slowly injected into the tumor. Twenty-four hours after injection, the rats were dissected, and the tumors were observed.

[18] = tested on: primary bronchopulmonary carcinoma
Description: Two cases of primary bronchopulmonary carcinoma which were pathologically confirmed were chosen. One was a case of adenocarcinoma, the other was a case of adenous prickle cell carcinoma. The sizes of the two tumors were 2.0×2.0 cm and 2.5×2.0 cm respectively. After CT location, guided by CT, percutaneous puncture was carried out on each case; the needle reached the center of the tumor and connected with an automatic micro-injecting pump, 1.5, 2.0 ml of 18 wt % HCl were injected into the tumors at a speed of 0.2 ml/min.

[19] = 1.5 ml-2.0 ml of 18 wt % HCl with i.v. 5 wt % sodium bicarbonate, 4 patients
[20] = 1.5 ml-2.0 ml of 18 wt % HCl, one week after injection

SMILES: Cl [hydrochloric acid]
- tumor response [1]: basically turned into necrotic tissue
- damage in the abdominal organs by dissection ([2]; 0.05 ml of 3.8 wt % HCl abdominal hypodermal): No damage was found in the abdominal organs
- diameters of damages (ulcer-like damages of the skin) ([2]; 0.05 ml of 3.8 wt % HCl then 0.05 ml normal saline (control group)): 1.2 cm
- diameters of scar areas ([2]; 0.05 ml of 3.8 wt % HCl then normal saline (control group), one week later): 0.9 cm
- diameter of coagulating necrotic area [3]: 2.1 cm
- gross examination of coagulating necrotic area [3]: spheroid
- coagulating necrotic ranges of the liver ([4]; 18 wt % HCl, 0.5, 1, 3 ml at 0.1, 0.5, 1 ml/min into hog liver, one week after injection): 1.2-5.2 cm
- death or intoxication ([4]; 18 wt % HCl, 0.5 ml-3 ml into hog liver): No death or intoxication of hog occurred
- reaction of animal at injection ([5]; 1.0 ml of 3.6 wt % HCl into the lung at 0.3 ml/min): coughed slightly
- diameter of coagulated (consolidated) lung tissue ([5]; 1.0 ml of 3.6 wt % HCl, 1 week after injection): 1.8 cm
- coagulating necrotic area on dissection of the lung ([5]; 1.0 ml of 3.6 wt % HCl, four weeks after injection): the coagulating necrotic area became smaller
- fate of necrotic substances ([5]; 1.0 ml of 3.6 wt % HCl, three months after injection): the necrotic substances were absorbed
- appearance of tumor on re-examination [6]: high level echo locus without blood flow
- diameter of tumor on re-examination ([6]; tumor 3.0 cm×2.5 cm before): 0.5 cm
- skin change after injection [7]: the skin became rough and a little exudation occurred
- skin change three weeks later ([7]; iodine tincture smeared, three weeks later): the surface became dry and scar was formed
- diameter of surface of ulcer ([7]; one week after injection): 1.0 cm
- effect on cancer cells in culture [8]: the destruction was due to gastric acid
- Diameter of coagulated areas ([9]; 0.1 ml of analytic pure hydrochloric acid (36%), 24 hours after injection): 1.5 cm
- Diameter of coagulated areas ([9]; 0.1 ml of analytic pure hydrochloric acid (36%), immediately after injection): 0.2 cm
- Diameter of coagulated areas ([9]; 0.5 ml of analytic pure hydrochloric acid (36%), 24 hours after injection): 3.9 cm
- Diameter of coagulated areas ([9]; 0.5 ml of analytic pure hydrochloric acid (36%), immediately after injection): 1.5 cm
- Diameter of coagulated area ([9]; 1 ml of 1.8 % hydrochloric acid, 24 hours after injection): 0.75 cm
- Diameter of coagulated area ([9]; 1 ml of 1.8 % hydrochloric acid, immediately after injection): 0.7 cm
- Diameter of coagulated area ([9]; 1 ml of 3.6 % hydrochloric acid, 24 hours after injection): 1.4 cm
- Diameter of coagulated area ([9]; 1 ml of 3.6 % hydrochloric acid, immediately after injection): 1.0 cm
- Diameter of coagulated area ([9]; 1 ml of 7.2 % hydrochloric acid, 24 hours after injection): 1.9 cm
- Diameter of coagulated area ([9]; 1 ml of 7.2 % hydrochloric acid, immediately after injection): 1.3 cm
- Diameter of coagulated area ([9]; 1 ml of 10.8 % hydrochloric acid, 24 hours after injection): 2.2 cm
- Diameter of coagulated area ([9]; 1 ml of 10.8 % hydrochloric acid, immediately after injection): 1.5 cm
- Diameter of coagulated area ([9]; 1 ml of 14.4 % hydrochloric acid, 24 hours after injection): 3.1 cm
- Diameter of coagulated area ([9]; 1 ml of 14.4 % hydrochloric acid, immediately after injection): 1.8 cm
- Diameter of coagulated area ([9]; 1 ml of 18 % hydrochloric acid, 24 hours after injection): 4.8 cm
- Diameter of coagulated area ([9]; 1 ml of 18 % hydrochloric acid, immediately after injection): 2.2 cm
- Diameter of coagulated area ([9]; 1 ml of 25.2 % hydrochloric acid, 24 hours after injection): 5.2 cm
- Diameter of coagulated area ([9]; 1 ml of 25.2 % hydrochloric acid, immediately after injection): 2.4 cm
- Diameter of coagulated areas ([9]; 1.0 ml of analytic pure hydrochloric acid (36%), 24 hours after injection): 5.5 cm
- Diameter of coagulated areas ([9]; 1.0 ml of analytic pure hydrochloric acid (36%), immediately after injection): 2.8 cm
- relief of cancerous pain [10]: pain could be relieved
- Diameters of coagulating necrotic area [11]: 0.76 cm
- Gross shapes [11]: spherical, caseous, grayish white in color,
- necrosis of the tumor ([11]; 0.05 ml): complete necrosis of the tumor
- size of metastatic tumor by intensified CT [12]: 0.8 cm
- diameter of coagulating necrotic area [13]: 2.2 cm
- gross shape [13]: spherical, grayish white in color, the
- pH value of blood, blood routine tests, liver and kidney function tests [14, 19]: all normal
- painful or toxic manifestation [14, 19]: None of the 4 patients had painful or toxic manifestation
- color ultrasonography of the tumor [14, 20]: high level echo without blood flow area
- liver cancer sensitive index α-fetoglobulin value [14, 20]: markedly lowered
- tumor response [15]: necrosis of the tumor occurred
- diameters of coagulated areas ([16]; 1 week after injection): 1.8 cm
- pathological changes ([16]; 1 week after injection): necrotic area occupies most part of the area,
- diameters of coagulated areas ([16]; 4 weeks after injection): 1.3 cm
- pathological changes ([16]; 4 weeks after injection): The necrotic area became smaller, infiltration
- diameters of coagulated areas ([16]; 12 weeks after injection): 0.5 cm
- pathological changes ([16]; 12 weeks after injection): The necrotic area became further smaller, the
- animal death during the experiment ([16]; 1 ml of 3.6 wt % hydrochloric acid into hog liver): no animal died due to the treatment
- diameter of round high level echo region at coagulated site by B-type ultrasonography ([16]; 1 ml of 3.6 wt % hydrochloric acid, immediately after injection): 2.0 cm
- fate of necrotic substances ([16]; 1 ml of 3.6 wt % hydrochloric acid, sixteen weeks after injection): the necrotic substances were absorbed
- diameter of brown necrotic tumor tissue ([17]; 1.0 ml of 18 wt % HCl into sarcoma 5 cm in diameter, 24 hours after injection): 3.5 cm
- death or intoxication during the treatment ([17]; 1.0 ml of 18 wt % HCl intratumoral): no death or intoxication occurred among the rats
- histopathologic changes by microscopy ([17]; 1.0 ml of 18 wt % HCl, 24 hours after injection): complete necrosis occurred in the necrotic area
- cytological examination of needle puncture biopsy ([18]; 1.5, 2.0 ml of 18 wt % HCl): found necrotic tissue
- reactions during the treatment ([18]; 1.5, 2.0 ml of 18 wt % HCl with i.v. 5% sodium bicarbonate, two patients): coughed slightly during the treatment; no other painful or toxic manifestations occurred
- pH value of blood, blood routine tests, liver and kidney function tests ([18]; 1.5, 2.0 ml of 18 wt % HCl, two patients): all normal

SMILES: CC(=O)O [50% acetic acid, acetic acid]
- diameter of coagulating necrotic area [3]: about 1.8 cm
- gross examination of coagulating necrotic area [3]: did not have a definite border
- Diameters of coagulating necrotic area [11]: 0.62 cm
- Gross shapes [11]: brown, the border was unclear,
- diameter of coagulating necrotic area [13]: 2.0 cm
- gross shape [13]: lump-like, white, the border

SMILES: CCO [100% absolute alcohol, absolute alcohol]
- diameter of coagulating necrotic area [3]: 0.5 cm
- gross examination of coagulating necrotic area [3]: spherical, white in color
- Diameters of coagulating necrotic area [11]: 0.41 cm
- Gross shapes [11]: spherical, white in color, the border
- diameter of coagulating necrotic area [13]: 0.5 cm
- gross shape [13]: spherical, white, the border
